The source of these data is US8268369B2, “Compositions and methods for treating hypercholesterolemia using Ortanique peel extract” (The University of the West Indies, priority 2008, dated 2012).

For one data set, the system named is glutathione reductase. As to the kind of experiment: Glutathione reductase activity in organs of rats. In kind it is in vivo. Particulars: hypercholesterolemic rats.
The subject of a further data set is glutathione peroxidase. The data set can be described thus: Glutathione peroxidase activity in organs of rats. Particulars: hypercholesterolemic rats. In kind it is in vivo.
Another data set concerns glutathione transferase. As to the kind of experiment: Glutathione transferase activity in organs of rats. The class given is in vivo. The conditions noted are these: hypercholesterolemic rats.
Data set [1] has as its system diet-induced hypercholesterolemic rats. As to the kind of experiment: Kidney function: serum creatinine and urea. Particulars: comparison among the groups.

The structures appear in SMILES notation. Marks after values point to notes of the source that are not given here.

For the molecule `O=C(O)c1cccnc1` [niacin], the “Glutathione Reductase Activity, Brain” value with glutathione reductase (brain) is reported as 14.95 ± 1.67^a nmol/min/mg protein. Also, the “Glutathione Reductase Activity, Heart” value with glutathione reductase (heart) was 12.53 ± 0.85^a nmol/min/mg protein. Further, the “Glutathione Reductase Activity, Kidney” value in the data set on glutathione reductase (kidney) is listed as 12.36 ± 0.10^a nmol/min/mg protein. In the data set on glutathione reductase (spleen), the “Glutathione Reductase Activity, Spleen” value is 49.48 ± 3.32^a nmol/min/mg protein. Besides, the “Glutathione Peroxidase Activity, Brain” value in the data set on glutathione peroxidase (brain) was 0.59 ± 0.18^a nmol/min/mg protein. Further, the “Glutathione Peroxidase Activity, Heart” value with glutathione peroxidase (heart) is listed as 5.14 ± 0.63^a nmol/min/mg protein. For the same molecule, the “Glutathione Peroxidase Activity, Kidney” value with glutathione peroxidase (kidney) is 3.35 ± 1.30^a nmol/min/mg protein. Further, the “Glutathione Peroxidase Activity, Spleen” value in the data set with glutathione peroxidase (spleen) was 0.21 ± 0.034^a nmol/min/mg protein. The “Glutathione Transferase Activity, Brain” value with glutathione transferase (brain) is 0.28 ± 0.04^a nmol/min/mg protein. The “Glutathione Transferase Activity, Heart” value with glutathione transferase (heart) is recorded as 0.21 ± 0.011^a nmol/min/mg protein. In addition, the “Glutathione Transferase Activity, Kidney” value in the data set with glutathione transferase (kidney) is 0.20 ± 0.05^b nmol/min/mg protein. Further, the “Glutathione Transferase Activity, Spleen” value with glutathione transferase (spleen) is given as 0.16 ± 0.07^b nmol/min/mg protein. In addition, in data set [1], the “level of serum creatinine” value was “no significant differences” and the “level of serum urea” value is “no significant differences”.
